{
  "source": "patent US8217014B2",
  "about": "“Pharmaceutical composition for treatment of blood clotting disorder” (National University Corporation Nagoya University, priority 2006, dated 2012)",
  "key": {"HCV": {"test_system": "HCV", "test": "Eradication of HCV in HCV-positive patients with hemophilia", "format": "in vivo, human", "method": "(§1) Ribavirin was orally administered, while the interferon was intravenously administered.\n(§2) Interferon α-2b alone was administered to the patients Nos. 1, 2, 3, and 5, prior to the combined administration of this Example 1. In the interferon single dosing period, the interferon was administered to the patients Nos. 1, 2, 3, and 5 every day with the dosage of 6 MU (million units) per day for the first 2 weeks and 3 times per week for the subsequent 22 weeks. […] In the combined administration of this Example 1, Intron A was administered to all the patients every day with the dosage of 6 MU per day for the first 2 weeks and 3 times per week for the subsequent 22 weeks.\nThe HCV-RNA level was measured at the start of treatment with Amplicor HCV Assay, version 2.0 (Roche Diagnostic Systems).\nEradication of HCV was considered positive when the absence of serum HCVRNA was maintained for 24 weeks after the treatment was completed."}, "[1]": {"test_system": "HCV-positive patients with hemophilia", "test": "Bleeding requiring treatment and use of clotting factors in hemophilia patients (patient logs)", "format": "in vivo, human", "details": "47 hemophilia patients with hepatitis C"}, "[2]": {"test_system": "coagulation factor X mRNA", "test": "mRNA expression of coagulation factor X, real-time quantitative RT-PCR, hepatic cell lines", "format": "cell-based", "details": "ribavirin 150 μg/ml in the presence of interferon α-2b 0.75 μg/ml; data not shown", "method": "(§3) The mRNA expression levels of the coagulation factors VII and X and prothrombin were measured according to the protocols of real-time quantitative RT-PCR with ABI Prism 7700 Sequence Detection (Perkin Elmer Biosystems, Foster City, Calif., USA) and SYBR Green PCR kit (Perkin Elmer Biosystems). The real-time quantitative RT-PCR was repeated twice. The following […] were used for determination of the mRNA of the genes."}, "coagulation factor VII": {"test_system": "coagulation factor VII", "test": "Coagulation activity of coagulation factor VII in the plasma of hemophilia patients"}, "coagulation factor X": {"test_system": "coagulation factor X", "test": "Coagulation activity of coagulation factor X in the plasma", "format": "in vivo, human", "details": "before and after the start of the combined dosing, data not shown"}, "[3]": {"test_system": "HCV-positive patients with hemophilia", "test": "Bleeding requiring treatment and use of clotting factors in hemophilia patients (patient logs)", "format": "in vivo, human", "method": "as §1, §2\nThe use of clotting factors was assessed by patient logs. The clotting factors are generally not used for patients with mild hemophilia. The doses (mean value) of the clotting factors before the combined dosing period of this Example 1, during the combined dosing period, and after the combined dosing period were evaluated. A significant difference at P<0.05 was evaluated by (paired) t-test. Ability to perform activities of daily living was assessed by interview."}, "[4]": {"test_system": "coagulation factor VII mRNA in HepG2 cell line", "test": "mRNA expression of coagulation factor VII, real-time quantitative RT-PCR, HepG2 cell line", "format": "cell-based, human", "details": "ribavirin 150 μg/ml in the presence of interferon α-2b 0.75 μg/ml, 48 hours, p<0.02", "method": "as §3"}, "[5]": {"test_system": "prothrombin time (PT) in the plasma", "test": "Prothrombin time (PT) in the plasma of chronic hepatitis C patients with or without hemophilia", "format": "in vivo, human", "details": "for PT Increase Rate: 12 weeks after start versus before; for PT After Therapy: 12 weeks after start", "method": "Of these patients, 9 patients were with hemophilia and 27 hepatitis patients were without hemophilia. Pegintron was administered to all the patients once a week with the dosage of 1.5 μg/Kg for 48 weeks, whereas Rebetol was simultaneously administered to the 9 hemophilia patients with the dosage of Administration Example 1 (600 mg to 800 mg per day).\nThe prothrombin time (PT) in the plasma was measured for the patients before the start of the dosing and 12 weeks after the start of the dosing, for the purpose of evaluation of the coagulation activity."}, "[6]": {"test_system": "coagulation factor VII mRNA in hepatic parenchymal cell line", "test": "mRNA expression of coagulation factor VII, real-time quantitative RT-PCR, normal hepatic parenchymal cell line", "format": "cell-based", "details": "ribavirin 150 μg/ml in the presence of interferon α-2b 0.75 μg/ml, 48 hours, p<0.01", "method": "as §3"}, "prothrombin mRNA": {"test_system": "prothrombin mRNA", "test": "mRNA expression of prothrombin, real-time quantitative RT-PCR, hepatic cell lines", "format": "cell-based", "details": "ribavirin 150 μg/ml in the presence of interferon α-2b 0.75 μg/ml; data not shown", "method": "as §3"}, "[7]": {"details": "4 weeks after start of combined dosing, 9 patients"}},
  "note": "Values joined by “and” are separate entries in the source; they are usually repeats but may differ in a detail not shown here. Identical values can stand only once.",
  "data": [
    {"compound": "interferon α-2b", "values": [
      {"measurement": "Elimination of HCV in interferon single dosing period", "setting": "HCV; interferon α-2b alone, 6 MU per day for 2 weeks then 3 times per week for 22 weeks, patients Nos. 1, 2, 3, 5", "value": "not eliminated"},
      {"measurement": "reduction of the bleeding tendency by single interferon dosing", "setting": "[1]", "value": "No such reduction"}
    ]},
    {"compound": "NC(=O)c1ncn([C@@H]2O[C@H](CO)[C@@H](O)[C@H]2O)n1", "note": "[ribavirin, 1-β-D-ribofuranosyl-1,2,4-triazole-3-carboxamide]", "values": [
      {"measurement": "mRNA induction of the coagulation factor X", "setting": "[2]", "value": "No significant induction"},
      {"measurement": "Factor VII coagulation activity increase in the 2 patients without significant increase", "setting": "coagulation factor VII; 2 of the 9 patients (one HIV positive, one hepatitis C and hepatitis B virus positive)", "value": "5% and 8%"},
      {"measurement": "Factor VII coagulation activity increase, maximum", "setting": "coagulation factor VII; [7]", "value": 28, "unit": "%"},
      {"measurement": "Factor VII coagulation activity increase, minimum", "setting": "coagulation factor VII; [7]", "value": 5, "unit": "%"},
      {"measurement": "Factor VII Clotting Activity Increase Rate", "setting": "coagulation factor VII; 4 weeks after start versus before start of combined dosing, 9 hemophilia patients, p<0.04", "value": "15.7 ± 8.8", "unit": "%"},
      {"measurement": "Factor VII Clotting Activity After Start of Therapy", "setting": "coagulation factor VII; plasma, 4 weeks after start of combined dosing (ribavirin 600-800 mg/day + interferon α-2b), 9 hemophilia patients, before start 86.3 ± 7.6%", "value": "102.0 ± 10.3", "unit": "%"},
      {"measurement": "change in coagulation activity of the coagulation factor X", "setting": "coagulation factor X", "value": "No significant change"},
      {"measurement": "monthly mean dosage of the clotting factors in the combined dosing period", "setting": "[3]; 5 patients with moderate or severe hemophilia, ribavirin + interferon α-2b, standard deviation 1488, 3783 U (SD 2646) in the 6 months before, P<0.03", "value": 1605, "unit": "U"},
      {"measurement": "monthly mean dosage of the clotting factors in the 6-month period after the combined dosing period", "setting": "[3]; 5 patients with moderate or severe hemophilia, standard deviation 1528, 3783 U (SD 2646) in the 6 months before, P<0.06", "value": 1667, "unit": "U"},
      {"measurement": "Times of Bleeding Requiring Treatment, After Therapy", "setting": "[3]; monthly mean bleeding frequency treated with clotting factors, after the combined dosing period of ribavirin and interferon α-2b, patient (Nos. 1, 2, 3, 5, 8)", "value": "0.7 and 0.0 and 1.6 and 4.1 and 2.2"},
      {"measurement": "Times of Bleeding Requiring Treatment, During Therapy", "setting": "[3]; monthly mean bleeding frequency treated with clotting factors, combined dosing period of ribavirin and interferon α-2b, patient (Nos. 1, 2, 3, 5, 8)", "value": "0.2 and 0.8 and 0.7 and 3.0 and 2.6"},
      {"measurement": "bleeding tendency in the combined dosing period compared with the interferon single dosing period", "setting": "[3]; patients Nos. 1, 2, 3 and 5, ribavirin + interferon α-2b", "value": "significantly reduced"},
      {"measurement": "Eradication of HCV", "setting": "HCV; oral ribavirin 600-800 mg/day combined with interferon α-2b (Intron A) for 24 weeks, YES = absence of serum HCV-RNA maintained 24 weeks after treatment, per patient (Nos. 1-8)", "value": "YES"},
      {"measurement": "mRNA induction of the coagulation factor VII", "setting": "[4]", "value": "about 3 times"},
      {"measurement": "PT Increase Rate", "setting": "[5]; Hemophilia Group n = 9", "value": "9.4 ± 8.4", "unit": "%"},
      {"measurement": "PT After Therapy", "setting": "[5]; Hemophilia Group n = 9, Rebetol 600-800 mg/day + Pegintron 1.5 μg/Kg once a week, before therapy 90.0 ± 12.2%", "value": "99.4 ± 14.3", "unit": "%"},
      {"measurement": "PT Increase Rate", "setting": "[5]; Non-Hemophilia Group n = 27", "value": "5.4 ± 12.6", "unit": "%"},
      {"measurement": "PT After Therapy", "setting": "[5]; Non-Hemophilia Group n = 27, Pegintron 1.5 μg/Kg once a week, combined administration, before therapy 94.9 ± 14.4%", "value": "100.0 ± 16.8", "unit": "%"},
      {"measurement": "mRNA induction of the coagulation factor VII", "setting": "[6]", "value": "about 4 times"},
      {"measurement": "mRNA induction of prothrombin", "setting": "prothrombin mRNA", "value": "No significant induction"}
    ]}
  ]
}
